Holding throughout (settings): 72 h
For assay [1], the system named is MDA-MB-436. In outline:
(§1)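 Viability of breast cancer cell lines was measured with CellTiter-Blue after 72 h of incubation on compound-loaded 384-well plates. Cells were seeded in 20 µl onto compound dissolved in 5 µl medium, and 2.5 µl reagent was added for 2 h at 37 °C before reading at 560/590 nm. EC50 was fitted from percent-inhibition dose-response data censored at the highest concentration, normalised per plate to vehicle and a positive kill control, with zero drug sensitivity score rows dropped.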

The subject of assay [2] is HDQ-P1. A digest of the protocol:
as §1

Assay [3] deals with MDA-MB-453. A digest of the protocol: as §1
For assay [4], the system named is MDA-MB-468. As to the method:
(§2)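 Drug sensitivity and resistance testing (DSRT) of breast cancer cell lines in 384-well plates, 5 concentrations in 10-fold dilutions over a compound-specific 10,000-fold range. After 72 h, cytotoxicity was read by CellTox Green fluorescence and viability by CellTiter-Glo luminescence (multiplexed), normalised to DMSO and benzethonium chloride controls. EC50 is the inflection point of the fitted dose-response curve (bottom asymptote free, so it can be relative for partial curves) and is censored at the highest tested concentration. Rows with DSS 0 (no meaningful response) were excluded.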

Assay [5] has as its system HCC1937. As for the experimental part:
as §2

Assay [6] concerns HDQ-P1. A digest of the protocol: (§3)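 EC50 was fitted from dose-response curves and censored at the highest concentration tested. To build those curves, breast cancer cell lines (20 µl suspension) were seeded into 384-well plates containing compound at 5 concentrations in 10-fold steps over a compound-specific 10,000-fold range and incubated for 72 h. Readouts were CellTox Green fluorescence (485/520 nm) for cell death and then CellTiter-Glo luminescence for viability, with each plate normalised to 0.1 % DMSO and a positive kill control.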
This is another data set of the same source.

Assay [7] relates to DU-4475. A digest of the protocol:
as §3

Assay [8] relates to MDA-MB-468. In outline:
as §3
The source holds these as a separate data set.

The subject of assay [9] is CAL-120. In outline:
as §3

A further assay concerns MCF-10A. A digest of the protocol:
as §3

The test system of assay [10] is MDA-MB-436. A digest of the protocol: as §3
The source holds these as a separate data set.

Assay [11] relates to CAL-85-1. In outline: as §3
The subject of assay [12] is Hs578T. In outline: as §3
The subject of assay [13] is HCC1937. In outline:
as §3
This is another data set of the same source.

Assay [14] has as its system CAL-148. A digest of the protocol:
as §3

The subject of assay [15] is MDA-MB-231. A digest of the protocol: as §3
In assay [16] the test system is HCC1143. In outline: as §3
Assay [17] has as its system HCC1599. In outline:
as §3

Assay [18] concerns MFM-223. In outline:
as §3

Assay [19] concerns BT-474. In outline: as §3
Assay [20] has as its system MDA-MB-453. In outline: as §3
This is another data set of the same source.

The test system of assay [21] is CAL-51. As to the method: as §2
Assay [22] concerns MDA-MB-436. As to the method:
as §2
This is another data set of the same source.

Assay [23] has as its system CAL-85-1. As for the experimental part: as §2
This is another data set of the same source.

In assay [24] the test system is CAL-148. As for the experimental part:
as §2
The source holds these as a separate data set.

Assay [25] deals with MDA-MB-231. As for the experimental part:
as §2
This is another data set of the same source.

The test system of assay [26] is MFM-223. As to the method: as §2
The source holds these as a separate data set.

Assay [27] deals with CAL-120. A digest of the protocol: as §1
The source holds these as a separate data set.

Assay [28] has as its system Hs578T. In outline: as §1
This is another data set of the same source.

The subject of assay [29] is MDA-MB-231. A digest of the protocol: as §1
The source holds these as a separate data set.

Assay [30] concerns HCC1143. In outline: as §1
The source holds these as a separate data set.

Assay [31] relates to HCC1599. A digest of the protocol: as §1
This is another data set of the same source.

The test system of assay [32] is MFM-223. In outline: as §1
The source holds these as a separate data set.

For assay [33], the system named is BT-474. In outline: as §1
The source holds these as a separate data set.

For assay [34], the system named is CAL-51. In outline: as §3
This is another data set of the same source.

For assay [35], the system named is BT-549. In outline: as §3
The next assay concerns SK-BR-3. In outline:
as §3

The subject of assay [36] is DU-4475. A digest of the protocol:
as §1
This is another data set of the same source.

Assay [37] concerns CAL-51. A digest of the protocol:
as §1
This is another data set of the same source.

The test system of assay [38] is CAL-85-1. In outline: as §1
The source holds these as a separate data set.

In assay [39] the test system is CAL-148. A digest of the protocol: as §1
The source holds these as a separate data set.

Assay [40] deals with BT-549. In outline:
as §1
This is another data set of the same source.

For the compound `Cc1ccc(-c2cc(C(F)(F)F)nn2-c2ccc(S(N)(=O)=O)cc2)cc1` [Celecoxib], the “EC50, CellTiter-Blue viability” value in the assay on MDA-MB-436 [1] amounted to 0.183 µM; in the assay with HDQ-P1 [2], 0.0675 µM; with MDA-MB-453 [3], 7.69 µM.
For the compound `O=C(/C=C/c1cccnc1)NCCCCC1CCN(C(=O)c2ccccc2)CC1` [Daporinad], the “EC50, CellTox Green” value with MDA-MB-468 [4] worked out at 0.596 µM; in the assay on HCC1937 [5] it was 0.0241 µM. Further, the “EC50, CellTiter-Glo” value in the assay with HDQ-P1 [6] came out at 0.0163 µM; with DU-4475 [7], 0.00678 µM; in the assay on MDA-MB-468 [8], 0.00353 µM; in the assay on CAL-120 [9], 0.00973 µM; in the assay on MCF-10A, 0.00785 µM; in the assay with MDA-MB-436 [10] it was 0.0674 µM. The “EC50, CellTiter-Glo” value turned out to be 0.00779 µM in the assay on CAL-85-1 [11]; 0.00427 µM with Hs578T [12]; 0.00697 µM in the assay with HCC1937 [13]; 0.081 µM in the assay on CAL-148 [14]; 0.0296 µM in the assay with MDA-MB-231 [15]; 0.00805 µM in the assay on HCC1143 [16]. The “EC50, CellTiter-Glo” value in the assay with HCC1599 [17] was 0.00415 µM; in the assay with MFM-223 [18], 0.00211 µM; with BT-474 [19], 0.0408 µM; with MDA-MB-453 [20] it was 0.00271 µM.
For the compound `Nc1ccccc1NC(=O)c1ccc(CNC(=O)OCc2cccnc2)cc1` [Entinostat], the “EC50, CellTox Green” value in the assay with MDA-MB-468 [4] worked out at 1.23 µM; in the assay with CAL-51 [21] it was 1.14 µM; in the assay with MDA-MB-436 [22] it was 6.22 µM; with CAL-85-1 [23] it was 4.31 µM; in the assay with CAL-148 [24], 4.16 µM; with MDA-MB-231 [25] it was 7.14 µM. Further, in the assay with MFM-223 [26], the “EC50, CellTox Green” value came out at 1.44 µM. The “EC50, CellTiter-Blue viability” value amounted to 1.89 µM in the assay on CAL-120 [27]; 5.88 µM in the assay with Hs578T [28]; 2.88 µM with MDA-MB-231 [29]; 5.1 µM with HCC1143 [30]; 3.68 µM in the assay with HCC1599 [31]; 2.71 µM in the assay on MFM-223 [32]. Moreover, the “EC50, CellTiter-Blue viability” value in the assay with BT-474 [33] came out at 3.52 µM; with DU-4475 [36], 5.7 µM; with CAL-51 [37], 7.86 µM; in the assay with CAL-85-1 [38], 2.7 µM; in the assay with CAL-148 [39], 2.99 µM; in the assay with MDA-MB-453 [3], 2.86 µM. Also, the “EC50, CellTiter-Glo” value came out at 2.38 µM in the assay on HDQ-P1 [6]; 3.83 µM in the assay with DU-4475 [7]; 4.17 µM with MDA-MB-468 [8]; 0.356 µM with CAL-51 [34]; 1.33 µM in the assay on MDA-MB-436 [10]; 0.925 µM in the assay on BT-549 [35]. In addition, the “EC50, CellTiter-Glo” value in the assay on CAL-85-1 [11] amounted to 8.31 µM; in the assay with Hs578T [12], 1.55 µM; with CAL-148 [14], 2.56 µM; in the assay with MDA-MB-231 [15], 7.17 µM; in the assay with HCC1143 [16] it was 4.76 µM; with HCC1599 [17], 4.84 µM. Moreover, the “EC50, CellTiter-Glo” value in the assay with MFM-223 [18] was determined as 4.85 µM; in the assay on SK-BR-3, 2.16 µM; in the assay on BT-474 [19] it was 7.64 µM; with MDA-MB-453 [20] it was 2.16 µM.
Consider `O=C(/C=C/c1cccnc1)NCCCCC1CCN(C(=O)c2ccccc2)CC1` [FK-866], for which the “EC50, CellTiter-Blue viability” value in the assay with CAL-120 [27] is 0.00866 µM; in the assay with MDA-MB-436 [1], 0.00508 µM; in the assay on BT-549 [40] it was 0.00608 µM; with Hs578T [28] it was 0.00375 µM; in the assay with MDA-MB-231 [29], 0.0201 µM; in the assay on HCC1143 [30], 0.00408 µM. Moreover, the “EC50, CellTiter-Blue viability” value in the assay on HCC1599 [31] worked out at 0.0139 µM; with MFM-223 [32], 0.00405 µM; in the assay on BT-474 [33], 0.0175 µM; in the assay on HDQ-P1 [2], 0.0213 µM; in the assay with DU-4475 [36], 0.0201 µM; in the assay with CAL-51 [37], 0.0126 µM. The “EC50, CellTiter-Blue viability” value was determined as 0.0257 µM in the assay with CAL-85-1 [38], 0.0344 µM with CAL-148 [39] and 0.00168 µM in the assay with MDA-MB-453 [3].
As for `Nc1nc(F)nc2c1ncn2[C@@H]1O[C@H](CO)[C@@H](O)[C@@H]1O` [Fludarabine], the “EC50, CellTiter-Glo” value is above 10 µM in the assay on CAL-120 [9], 7.39 µM in the assay with MDA-MB-436 [10] and 5.92 µM in the assay with BT-549 [35].

These data come from the supplement of paper PMC4862054.
